In series [1] the test system is A-549 (lung adenocarcinoma). Nature of the series: MTT-based viability assay, A-549. The series is classed as cell-based. The conditions noted are these: Homo sapiens, A549, 48 h of treatment, read-out: EC50 ± SD, A-549. How it is done:
(§1) To evaluate the cytotoxic activity of compounds 4a–j and 5a–5j, we performed an MTT test for three tumor cell lines, i.e.,: MCF-7 (breast adenocarcinoma), A-549 (lung adenocarcinoma), CCRF-CEM (acute lymphoblastic leukemia), and one normal cell line, MRC-5 (normal lung fibroblasts). The EC50 values, describing the half maximal effective concentration of each tested compound, were calculated and are summarized in Table 4. The representative sigmoidal dose–response curves are shown in Figure S2 (see Supporting Information S2).
(§2) CCRF-CEM (ECACC 85112105) human acute lymphoblastic leukaemia and MRC-5 pd30 Human fetal lung fibroblasts (ECACC 05090501) were purchased from European Collection of Authenticated Cell Cultures, whereas A-549 (ATCC CCL 185) human lung carcinoma and MCF-7 (ATCC HTB-22) human breast adenocarcinoma cell line were purchased from American Type Culture Collection. A-549 and MCF-7 cell lines were cultured in high glucose DMEM (Biowest) supplemented with 10% fetal bovine serum (Biowest), 2 mM L-glutamine and antibiotics (100 U/mL penicillin, 100 µg/mL streptomycin). CCRF-CEM were cultured in RPMI 1640 supplemented with 10% fetal bovine serum (EuroClone), 2 mM L-glutamine and antibiotics (100 U/mL penicillin, 100 µg/mL streptomycin). MRC-5 pd30 human fibroblasts (ECACC) were cultured in MEME, Minimum Essential Medium Eagle (Merck) supplemented with 10% fetal bovine serum (Merck), 2 mM l-glutamine, antibiotics (100 U mL^−1 penicillin, 100 μg mL^−1 streptomycin, Merck) and 1% non-essential amino-acids (Merck). Cells were grown in 75 cm^2 cell culture flasks (Sarstedt, Nümbrecht, Germany), in a humidified atmosphere of CO2/air (5/95%) at 37 °C. All the experiments were performed in exponentially growing cultures. Stock solution of tested compounds were prepared in DMSO and stored in −20 °C for maximum one month. For the cytotoxicity studies, stock solutions were diluted 200-fold with the proper culture medium to obtain the final concentrations. For cytotoxicity studies 2-fold serial dilutions of the tested compounds were prepared in the proper medium in the range from 3.125 µM to 200 µM.
(§3) After incubation with the test compounds, MTT test was performed as described previously. Optical densities were measured at 570 nm using BioTek microplate reader. All measurements were carried out in a minimum of three replicates.

Series [2] concerns MCF-7 (breast adenocarcinoma). The arrangement: method as in PMID 28340404. To be noted: determined previously; read-out: EC50 ± SD, MCF-7; cited from earlier work.
The subject of series [3] is CCRF-CEM (acute lymphoblastic leukemia). The arrangement: method as in PMID 28340404. To be noted: determined previously; read-out: EC50 ± SD, CCRF-CEM; cited from earlier work.
A short description of series [4]: Solubility in DMSO (stock preparation). The series is classed as physicochemical. The text has this:
However, among the tested compounds, the highest selectivity index was obtained for 5a (2.04) for MCF-7, respectively.

The subject of a further series is CCRF-CEM cells. Nature of the series: Detection of apoptosis by flow cytometry (annexin V-FITC/PI). The series is classed as cell-based, human. The conditions noted are these: 48 h; for induction of apoptosis: annexin V binding. The method, then: CCRF-CEM cells were seeded in 24-well plates at 2 × 10^5 cells/well and treated with the tested compounds used in 15 µM, 30 µM, and 45 µM concentrations. After exposure to the examined compounds, the cells were collected, centrifugated at 200× g at 4 °C for 5 min, washed twice with cold phosphate–buffered saline (PBS), and subsequently suspended in binding buffer. Subsequently, 100-μL aliquots of the cell suspension were labelled according to the kit manufacturer’s instructions. Briefly, annexin V-fluorescein isothiocyanate, and propidium iodide (BD Biosciences, Pharmingen, San Diego, CA, USA) were added to the cell suspension, and the mixture was vortexed and then incubated for 15 min at RT in the dark. A cold binding buffer (400 μL) was then added and the cells were vortexed again and kept on ice. Flow cytometric measurements were performed within 1 h after labeling. Viable, necrotic, early, and late apoptotic cells were detected by FACSCanto II flow cytometer (BD Biosciences, San Diego, CA, USA) and analysed using BD FACSDiva software.
Figure 2 Effect of compounds 4f, 5g, and 5j on the progression of apoptosis/necrosis in CCRF-CEM. Percentage of viable, early, and late apoptotic, and necrotic cells after 48 h of treatment with the tested compounds (A). Percentage of CCRF-CEM cells in late apoptosis (B). Cells were stained with annexin V-FITC and PI (propidium iodide). Flow cytometry analyses were run on FACSCanto II flow cytometer (BD Biosciences, San Diego, CA, USA) and analysed using BD FACSDiva software. Graphs represent mean values ± s.e.m. *** p < 0.001 relative to control; ns—not significant. Statistical analysis for three to six independent replicates was performed using a one-way ANOVA analysis (GraphPad Software Inc., San Diego, CA, USA).

Series [5] relates to MRC-5 (normal lung fibroblasts). Nature of the series: MTT-based viability assay, MRC-5. The series is classed as cell-based. To be noted: Homo sapiens, MRC5, 48 h of treatment, read-out: EC50 ± SD, MRC-5. The method, then: as §1, §2, §3
A general note: Tetrazolium dyes change colour on reduction, which living cells bring about.

Series [6] concerns MCF-7 (breast adenocarcinoma). Kind of series: MTT-based viability assay, MCF-7. The series is classed as cell-based, human. The conditions noted are these: for EC50: Homo sapiens, MCF7, MTT, 48 h of treatment, read-out: EC50 ± SD, MCF-7; for SI (selectivity index), MCF-7: SI = EC50 for normal MRC-5 line/EC50 for MCF-7. How it is done: as §1, §2, §3
For series [7], the system named is CCRF-CEM (acute lymphoblastic leukemia). Kind of series: MTT-based viability assay, CCRF-CEM. The series is classed as cell-based, human. The conditions noted are these: for EC50: Homo sapiens, CCRF-CEM, MTT, 48 h of treatment, read-out: EC50 ± SD, CCRF-CEM; for SI (selectivity index), CCRF-CEM: SI = EC50 for normal MRC-5 line/EC50 for CCRF-CEM. How it is done:
as §1, §2, §3

Data on nine molecules can be found in publication PMC9315981, “N-Phenacyldibromobenzimidazoles—Synthesis Optimization and Evaluation of Their Cytotoxic Activity” (Molecules, 2022).

Read-outs that look alike come from different tables or passages of the source.

With `Brc1c(Br)c(Br)c2[nH]cnc2c1Br` [4,5,6,7-tetrabromo-1H-benzimidazole], the values for the EC50 in series [1], in series [2] and in series [3] were 36.4 ± 0.7 µM, 23.6 ± 0.1 µM and 18.1 ± 0.6 µM, respectively.

Consider `O=C(Cn1cnc2cc(Br)c(Br)cc21)c1ccc(Br)cc1` [Compound 4d], for which the “solubility in DMSO” value in series [4] is listed as “sparingly soluble in DMSO”.

For `O=C(Cn1cnc2cc(Br)c(Br)cc21)c1ccc(Cl)c(Cl)c1` [Compound 4f, 2-(5,6-dibromo-1H-benzimidazol-1-yl)-1-(3,4-dichlorophenyl)ethanone], the induction of apoptosis entry with CCRF-CEM cells (45 µM) is “induced apoptosis effectively”. Also, the EC50 (commonly the concentration at which the effect is half-maximal) in series [1] was 51.1 ± 2.78 µM; in series [5] it was 48.5 ± 4.5 µM; in series [6] it was 26.4 ± 0.8 µM; in series [7], 27.5 ± 2.46 µM. Besides, in series [6], the “SI (selectivity index), MCF-7” value was 1.84. The “SI (selectivity index), CCRF-CEM” value in series [7] turned out to be 1.76.

With `O=C(Cn1cnc2c(Br)cc(Br)cc21)c1ccc(Br)cc1` [Compound 5d, 1-(4-bromophenyl)-2-(4,6-dibromo-1H-benzimidazol-1-yl)ethanone], the concentration for a half-maximal effect (EC50) in series [1] amounted to 50.9 ± 2.84 µM; in series [5] it was 45.1 ± 5.73 µM; in series [6], 27.8 ± 2.61 µM; in series [7] it was 50.5 ± 1.52 µM. The “SI (selectivity index), MCF-7” value in series [6] is 1.62. For the same molecule, the “SI (selectivity index), CCRF-CEM” value in series [7] is recorded as 0.89.

As for `O=C(Cn1cnc2c(Br)cc(Br)cc21)c1ccc(Cl)cc1Cl` [Compound 5e], the EC50 stood at 46 ± 3.42 µM in series [1], 34.4 ± 7.83 µM in series [5], 27.4 ± 1.57 µM in series [6] and 38.4 ± 1.39 µM in series [7]. The “SI (selectivity index), MCF-7” value in series [6] was 1.25. In series [7], the “SI (selectivity index), CCRF-CEM” value worked out at 0.89.

For `O=C(Cn1cnc2c(Br)cc(Br)cc21)c1ccc(Cl)c(Cl)c1` [Compound 5f], the EC50 was determined as 40 ± 5.78 µM in series [1], 43.2 ± 12.1 µM in series [5], 32.8 ± 1.88 µM in series [6] and 40.6 ± 2.39 µM in series [7]. In addition, in series [6], the “SI (selectivity index), MCF-7” value is on record as 1.32. Further, in series [7], the “SI (selectivity index), CCRF-CEM” value worked out at 1.06.

Consider `O=C(Cn1cnc2c(Br)cc(Br)cc21)c1c(Cl)cc(Cl)cc1Cl` [Compound 5g, 2-(4,6-dibromo-1H-benzimidazol-1-yl)-1-(2,4,6-trichlorophenyl)ethanone], for which the “cells in late apoptosis” value in the series with CCRF-CEM cells (30 µM, annexin V-FITC/PI) stood at 32%. Moreover, the induction of apoptosis result in the series with CCRF-CEM cells (45 µM) is “induced apoptosis effectively”. Besides, in the series with CCRF-CEM cells (45 µM, annexin V-FITC/PI), the “percent of apoptotic cells” value is 75.6%. Also, the EC50 amounted to 41.3 ± 3.2 µM in series [1], 26.9 ± 1.62 µM in series [5], 24 ± 2.33 µM in series [6] and 26.6 ± 0.31 µM in series [7]. The “SI (selectivity index), MCF-7” value in series [6] is listed as 1.12. Further, in series [7], the “SI (selectivity index), CCRF-CEM” value is 1.01.

`O=C(Cn1cnc2c(Br)cc(Br)cc21)c1cc(F)ccc1F` [Compound 5i]: the EC50 in series [1] was 82.7 ± 10.6 µM; in series [5] it was 48.07 ± 0.04 µM; in series [6] it was 44.8 ± 6.33 µM; in series [7] it was 46.2 ± 3.24 µM. In addition, the “SI (selectivity index), MCF-7” value in series [6] came to 1.07. For the same molecule, in series [7], the “SI (selectivity index), CCRF-CEM” value is recorded as 1.04.

As for `O=C(Cn1cnc2c(Br)cc(Br)cc21)c1c(F)cc(F)cc1F` [Compound 5j, 2-(4,6-dibromo-1H-benzimidazol-1-yl)-1-(2,4,6-trifluorophenyl)ethanone], the induction of apoptosis result in the series with CCRF-CEM cells (45 µM) is “induced apoptosis effectively”. The EC50 turned out to be 85.4 ± 3.16 µM in series [1], 61 ± 5.64 µM in series [5], 42.2 ± 3.95 µM in series [6] and 34.4 ± 2.3 µM in series [7]. Also, the “SI (selectivity index), MCF-7” value in series [6] was 1.45. The “SI (selectivity index), CCRF-CEM” value in series [7] was determined as 1.77.
